Experimental findings from patent publication US6136830A, “Sulphonyloxadiazolones and their use as microbicides” (Bayer Aktiengesellschaft, priority 1997, dated 2000) are described below.

System in the first series: not listed separately
Nature of the series: log P by HPLC (EEC-Directive 79/831 Annex V. A8). In kind it is physicochemical. The following applies: gradient method, acetonitrile/0.1% aqueous phosphoric acid. As for the experimental part:
The log P values were determined according to EEC-Directive 79/831 Annex V. A8 by HPLC (gradient method, acetonitrile/0.1% aqueous phosphoric acid).
What is called chromatographic logP is lipophilicity estimated from chromatographic retention. Turning to `COC(=O)c1ccc(Oc2noc(=O)n2S(=O)(=O)c2c(C)noc2C)cc1` [Example 2], the chromatographic logP came to 3.07. `Cc1cccc(C)c1Oc1noc(=O)n1S(=O)(=O)c1c(C)noc1C` [Example 3] returned a chromatographic logP of 3.54. On to `Cc1ccc(C(C)C)c(Oc2noc(=O)n2S(=O)(=O)c2c(C)noc2C)c1` [Example 4], for which the chromatographic logP was 4.19.

The molecule `Cc1ccc(Oc2noc(=O)n2S(=O)(=O)c2c(C)noc2C)c(C)c1` [Example 5] came in with a chromatographic logP of 3.63.

In the case of `Cc1ccccc1Oc1noc(=O)n1S(=O)(=O)c1c(C)noc1C` [Example 7], the chromatographic logP stood at 3.28.

With `Cc1noc(C)c1S(=O)(=O)n1c(Oc2ccc(Cl)cc2)noc1=O` [Example 8], the chromatographic logP is 3.45.

The next series has as its system Phytophthora infestans. Briefly: whole plant or invertebrate. In kind it is in vivo, Phytophthora infestans (on tomato plants). The following applies: in Solanum lycopersicum, 72 h, read-out: Efficacy in %.
Take `Cc1noc(C)c1S(=O)(=O)n1c(N(C)C2CCCCC2)noc1=O`: the pest or weed control at 50 g/ha stood at 85%. Regarding `Cc1ccc(C)c(Oc2noc(=O)n2S(=O)(=O)c2c(C)noc2C)c1`, the pest or weed control at 50 g/ha is 94%. With `Cc1ccc(C)c(Oc2noc(=O)n2S(=O)(=O)c2c(N)noc2C)c1`, the pest or weed control at 50 g/ha was 96%. Turning to `Cc1ccc(Oc2noc(=O)n2S(=O)(=O)c2c(C)noc2C)cc1C`, the pest or weed control at 50 g/ha amounted to 95%. On the same count and under the same terms, as for `Cc1ccc(Oc2noc(=O)n2S(=O)(=O)c2c(N)noc2C)cc1C`, the figure is 95%; as for `Cc1cc(C)cc(Oc2noc(=O)n2S(=O)(=O)c2c(C)noc2C)c1`, 96%. Turning to `Cc1cc(C)cc(Oc2noc(=O)n2S(=O)(=O)c2c(N)noc2C)c1`, the pest or weed control at 50 g/ha is 95%. As for `COc1ccc(Oc2noc(=O)n2S(=O)(=O)c2c(N)noc2C)cc1`, the pest or weed control at 50 g/ha is 91%. Same read-out and setting: as for `COC(=O)c1ccc(Oc2noc(=O)n2S(=O)(=O)c2c(C)noc2C)cc1` [drawing 39], the figure is 86%; as for `Cc1ccc(Oc2noc(=O)n2S(=O)(=O)c2c(C)noc2C)c(C)c1` [drawing 40], 94%.

Take `Cc1cccc(C)c1Oc1noc(=O)n1S(=O)(=O)c1c(C)noc1C` [drawing 41]: the pest or weed control at 50 g/ha was found to be 88%. Regarding `Cc1ccc(C(C)C)c(Oc2noc(=O)n2S(=O)(=O)c2c(C)noc2C)c1` [drawing 42], the pest or weed control at 50 g/ha was found to be 95%. Take `Cc1ccccc1Oc1noc(=O)n1S(=O)(=O)c1c(C)noc1C` [drawing 43]: the pest or weed control at 50 g/ha was determined as 94%. With `Cc1noc(C)c1S(=O)(=O)n1c(Oc2ccc(Cl)cc2)noc1=O` [drawing 44], the pest or weed control at 50 g/ha amounted to 97%.
